Source: the Kinase Knowledgebase extract (Sharma et al. 2016)

biological target: PIK3CG (human) (UniProt P48736); assay: Inhibition of PIK3CG Kinase Activity
Sequence (P48736 whole entry, looked up): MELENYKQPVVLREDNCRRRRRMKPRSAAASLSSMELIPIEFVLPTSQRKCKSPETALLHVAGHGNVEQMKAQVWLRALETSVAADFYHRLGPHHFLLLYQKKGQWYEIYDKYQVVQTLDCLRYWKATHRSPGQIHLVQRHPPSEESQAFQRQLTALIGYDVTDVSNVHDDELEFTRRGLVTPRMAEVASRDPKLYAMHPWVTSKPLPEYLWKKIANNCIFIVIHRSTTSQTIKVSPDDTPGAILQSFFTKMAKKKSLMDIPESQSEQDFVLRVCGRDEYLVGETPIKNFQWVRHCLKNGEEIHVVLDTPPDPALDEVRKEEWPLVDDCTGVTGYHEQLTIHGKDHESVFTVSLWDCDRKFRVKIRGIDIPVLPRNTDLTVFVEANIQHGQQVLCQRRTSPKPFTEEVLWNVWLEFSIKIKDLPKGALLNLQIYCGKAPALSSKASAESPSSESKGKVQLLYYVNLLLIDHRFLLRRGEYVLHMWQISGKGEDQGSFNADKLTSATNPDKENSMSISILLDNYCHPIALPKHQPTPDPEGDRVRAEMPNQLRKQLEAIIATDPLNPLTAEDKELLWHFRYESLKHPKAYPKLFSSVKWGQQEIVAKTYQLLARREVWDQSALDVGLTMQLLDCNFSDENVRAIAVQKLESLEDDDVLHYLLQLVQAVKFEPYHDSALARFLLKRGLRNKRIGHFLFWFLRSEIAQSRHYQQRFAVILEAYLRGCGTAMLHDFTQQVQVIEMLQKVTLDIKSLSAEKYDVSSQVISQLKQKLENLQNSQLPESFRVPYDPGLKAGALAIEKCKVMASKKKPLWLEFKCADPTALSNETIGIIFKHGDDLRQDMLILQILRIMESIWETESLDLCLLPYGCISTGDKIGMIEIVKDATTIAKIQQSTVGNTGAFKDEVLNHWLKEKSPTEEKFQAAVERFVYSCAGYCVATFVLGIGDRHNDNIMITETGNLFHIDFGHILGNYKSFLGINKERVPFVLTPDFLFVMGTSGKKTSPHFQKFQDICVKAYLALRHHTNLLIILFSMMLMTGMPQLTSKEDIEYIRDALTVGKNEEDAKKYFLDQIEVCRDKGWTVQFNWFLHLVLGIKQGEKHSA

Ki	SMILES
< 100 nM	CCOc1ncc(-c2cc(C)c3c(c2)C(C)N(c2cnn(CC(F)(F)F)c2)C3=O)cc1OC (centres undefined)
< 100 nM	COc1cc(-c2ccc3c(n2)CN(c2cnn(Cc4cscn4)c2)C3=O)cnc1OC
< 100 nM	COc1cc(-c2cc(C)c3c(n2)CN(c2ccc(OCC(F)F)nc2)C3=O)cnc1OC
100 to 490 nM	Cc1ncc(-c2ccc3c(n2)CN(c2cnn(CC(F)(F)F)c2)C3=O)cc1O
< 100 nM	COc1cc(-c2cc(C)c3c(n2)CN(c2cnn(CC(F)(F)F)c2)C3=O)ccc1Cl
< 100 nM	COc1cc(-c2ccc3c(n2)C(C)(C)N(c2cnn(CC(F)(F)F)c2)C3=O)cnc1OC
< 100 nM	COc1cc(-c2ccc3c(n2)[C@H](C)N(c2cn(CC(F)(F)F)cn2)C3=O)cnc1OC
100 to 490 nM	COc1cc(-c2ccc3c(n2)C(C)N(c2ccc(N4CCC(O)C4)nc2)C3=O)cnc1OC (centres undefined)
< 100 nM	CCOc1ncc(-c2ccc3c(c2)CN(c2cnn(CC#N)c2)C3=O)cc1OC
< 100 nM	COc1cc(-c2cc(C)c3c(n2)CN(c2cncc(CC#N)c2)C3=O)cnc1OC
< 100 nM	CCO[C@]1(C)c2nc(-c3cnc(OC)c(OC)c3)cc(C)c2C(=O)N1c1cnn(CC(F)(F)F)c1
< 100 nM	COc1csc(-c2cc(C)c3c(n2)CN(c2cnn(CC(F)(F)F)c2)C3=O)c1
< 100 nM	Cc1cc(-c2cncc(OC(F)F)c2)nc2c1C(=O)N(c1cnn(CC(F)(F)F)c1)C2
< 100 nM	COc1ncc(-c2ccc3c(n2)[C@H](C)N(c2cnn(CC(F)(F)F)c2)C3=O)cc1O
< 100 nM	COc1ncc(-c2cc(C)c3c(n2)C(C)N(c2cnn(CC(F)(F)F)c2)C3=O)cc1C(=O)O (centres undefined)
< 100 nM	COc1cc(-c2cc(C)c3c(n2)C(C)(C)N(c2cnn(CC(F)(F)F)c2)C3=O)cnc1F
< 100 nM	COc1cc(-c2cc(C)c3c(n2)CN(c2nc(CO)cs2)C3=O)cnc1OC
< 100 nM	COc1cc(-c2cc(OC)c3c(n2)CN(c2cnn(CC#N)c2)C3=O)cnc1OC
< 100 nM	COCCOc1cc(-c2cc(C)c3c(n2)CN(c2cnn(CC(F)(F)F)c2)C3=O)cnc1OC
< 100 nM	COc1cc(-c2ccc3c(n2)[C@@H](OC)N(c2cnn(CC(F)(F)F)c2)C3=O)cnc1OC
< 100 nM	COc1cc(-c2cc(C)c3c(n2)C(C(C)C)N(c2cnn(CC(F)(F)F)c2)C3=O)cnc1OC (centres undefined)
< 100 nM	COc1cc(-c2cc(C)c3c(n2)CN(c2cc(C)n(CCC4OCCCO4)n2)C3=O)cnc1OC
< 100 nM	COc1ncc(-c2cc(C)c3c(n2)C(C)(C)N(c2cnn(CC(F)(F)F)c2)C3=O)cc1NS(=O)(=O)N(C)C
< 100 nM	Cc1cc(-c2cncc(OC(C)C)c2)nc2c1C(=O)N(c1cnn(CC(F)(F)F)c1)C2

Ki	SMILES
< 100 nM	COCCn1cc(N2Cc3nc(-c4cnc(OC)c(OC)c4)ccc3C2=O)cn1
< 100 nM	COc1cc(-c2ccc3c(n2)CN(c2cnn(Cc4cccnc4C)c2)C3=O)cnc1OC
< 100 nM	CCOc1cncc(-c2cc(C)c3c(n2)C(C)N(c2cnn(CC(F)(F)F)c2)C3=O)c1 (centres undefined)
< 100 nM	COc1cc(-c2cc(C)c3c(c2)CN(c2cnn(CC#N)c2)C3=O)cnc1OC
100 to 490 nM	COCCO[C@H]1c2nc(-c3cnc(OC)c(OC)c3)ccc2C(=O)N1c1cnn(CC(F)(F)F)c1
< 100 nM	COCCOCn1cc(N2Cc3nc(-c4cnc(OC)c(OC)c4)ccc3C2=O)cn1
< 100 nM	COc1cc(-c2cc(C)c3c(n2)CN(c2ccc(OCCC(F)(F)F)nc2)C3=O)cnc1OC
< 100 nM	Cc1cc(-c2cc(C)c3c(n2)CN(c2cnn(CC(F)(F)F)c2)C3=O)ccn1
100 to 490 nM	COc1cc(-c2ccc3c(n2)CN(c2ccc(N(C)CC4OCCO4)nc2)C3=O)cnc1OC
< 100 nM	COc1cc(-c2ccc3c(n2)CN(c2ccn(C[C@@H](C)O)n2)C3=O)cnc1OC
< 100 nM	Cc1cc(-c2cncc(OC(F)F)c2)nc2c1C(=O)N(c1cnn(CC(F)F)c1)C2
100 to 490 nM	CCOCCCOc1ncc(-c2cc(C)c3c(n2)CN(c2cnn(CC(F)(F)F)c2)C3=O)cc1OC
< 100 nM	COc1cc(-c2ccc3c(n2)CN(c2ccn(CC#N)n2)C3=O)cnc1OC
100 to 490 nM	COc1cc(-c2ccc3c(c2)CN(c2cncc(C#N)c2)C3=O)cnc1OC
< 100 nM	COc1cc(-c2ccc3c(n2)CN(c2nccs2)C3=O)cnc1OC
< 100 nM	CCOc1ncc(-c2cc(C)c3c(n2)[C@@]2(CCCO2)N(c2cnn(CC(F)(F)F)c2)C3=O)cc1OC
< 100 nM	COc1cc(-c2cc(C)c3c(n2)CN(c2cscn2)C3=O)cnc1OC
< 100 nM	Cc1cc(-c2cncc(OC(F)F)c2)nc2c1C(=O)N(c1cnn(C(C)(C)C#N)c1)C2C (centres undefined)
100 to 490 nM	CCc1cc(N2Cc3nc(-c4cnc(OC)c(OC)c4)ccc3C2=O)n[nH]1
100 to 490 nM	COc1cc(-c2ccc3c(n2)CN(c2ccc(=O)n(CC4OCCO4)c2)C3=O)cnc1OC
< 100 nM	COc1cncc(-c2cc(C)c3c(n2)C(OCCO)N(c2cnn(CC(F)(F)F)c2)C3=O)c1 (centres undefined)
< 100 nM	COc1cc(-c2cc(C)c3c(n2)CN(c2cnn(C[C@@H](C)O)c2)C3=O)cnc1OC
< 100 nM	COc1cc(-c2cc(C)c3c(n2)CN(c2cc(O)[nH]n2)C3=O)cnc1OC
< 100 nM	COc1cc(-c2cc(C)c3c(n2)CN(c2cnc(OC)c(F)c2)C3=O)cnc1OC

Ki	SMILES
< 100 nM	COc1cc(-c2cc(C)c3c(n2)C2(CCCO2)N(c2cnn(CC(F)(F)F)c2)C3=O)cnc1OC (centres undefined)
< 100 nM	COc1cc(-c2ccc3c(n2)CN(c2ccn(CC4COCCO4)n2)C3=O)cnc1OC (centres undefined)
< 100 nM	Cc1cc(-c2cncc(F)c2)nc2c1C(=O)N(c1cnn(CC#N)c1)C2
< 100 nM	COc1cc(-c2cc(C)c3c(n2)C(C)(C)N(c2cnn(CC(F)(F)F)c2)C3=O)cnc1C
< 100 nM	COc1cc(-c2cc(C)c3c(c2)C(C)N(c2cnn(CC(F)(F)F)c2)C3=O)cnc1OC (centres undefined)
< 100 nM	COc1ncc(-c2cc(C)c3c(n2)C(C)(C)N(c2cnn(CC(F)(F)F)c2)C3=O)cc1C(=O)NCC(C)(C)O
< 100 nM	COc1cc(-c2cc(C)c3c(n2)[C@](C)(OC)N(c2cnn(CC(F)(F)F)c2)C3=O)cnc1OC
< 100 nM	COc1cncc(-c2cc(C)c3c(n2)C(C)N(c2ccn(CC4CCCO4)n2)C3=O)c1 (centres undefined)
< 100 nM	CCOc1cc(-c2cc(C)c3c(n2)CN(c2cnn(CC)c2)C3=O)cnc1OC
< 100 nM	COc1cc(-c2cc(C)c3c(n2)CN(c2cnc(C(C)(C)O)c(F)c2)C3=O)cnc1OC
< 100 nM	Cc1cc(-c2cncc(OCC(F)(F)F)c2)nc2c1C(=O)N(c1cnn(CC(F)F)c1)C2(C)C
< 100 nM	COc1cncc(-c2cc(C)c3c(n2)C2(CCCO2)N(c2cnn(CC(F)(F)F)c2)C3=O)c1 (centres undefined)
< 100 nM	COCCOCCOc1ncc(-c2cc(C)c3c(n2)C(C)N(c2cnn(CC(F)(F)F)c2)C3=O)cc1OC (centres undefined)
< 100 nM	CC[C@@H]1c2nc(-c3cnc(OC)c(OC)c3)ccc2C(=O)N1c1cnn(CC(F)(F)F)c1
< 100 nM	CON=Cc1cncc(-c2cc(C)c3c(n2)C(C)(C)N(c2cnn(CC(F)(F)F)c2)C3=O)c1
< 100 nM	COc1cc(-c2ccc3c(n2)[C@@H](C)N(c2ccn(CC(C)(C)F)n2)C3=O)cnc1OC
< 100 nM	COc1cc(-c2ccc3c(n2)CN(c2ccc(C)s2)C3=O)cnc1OC
< 100 nM	COc1cc(-c2ccc3c(n2)C(C)N(c2ccn(CC(C)(C)O)n2)C3=O)cnc1OC (centres undefined)
100 to 490 nM	CCN(C)C(=O)COc1ccc(N2Cc3nc(-c4cnc(OC)c(OC)c4)ccc3C2=O)cn1
< 100 nM	COc1cc(-c2ccc3c(n2)CN(c2ccn[nH]2)C3=O)cnc1OC
< 100 nM	COc1cc(-c2ccc3c(n2)[C@H](C)N(c2cn[nH]c2)C3=O)cnc1OC
< 100 nM	COc1cc(-c2ccc3c(n2)[C@H](C)N(c2cnn(CC#N)c2)C3=O)cnc1OC
< 100 nM	COc1ncc(-c2cc(C)c3c(n2)CN(c2cnn(C(C)(C)C#N)c2)C3=O)cc1OCC1CC1
100 to 490 nM	COc1cc(-c2ccc3c(n2)CN(c2ccc(N4CC[C@@H](F)C4)nc2)C3=O)cnc1OC

Ki	SMILES
< 100 nM	CCOc1cncc(-c2cc(C)c3c(n2)C(OC)N(c2cnn(CC(F)(F)F)c2)C3=O)c1 (centres undefined)
< 100 nM	COc1cc(-c2ccc3c(c2)CN(c2cnn([C@@H](C)C#N)c2)C3=O)cnc1OC
< 100 nM	COc1cncc(-c2cc(C)c3c(n2)C(C)N(c2ccn(CC(C)(C)F)n2)C3=O)c1 (centres undefined)
< 100 nM	CCc1n[nH]c(N2Cc3cc(-c4cnc(OC)c(OC)c4)ccc3C2=O)n1
< 100 nM	COc1cc(-c2ccc3c(n2)CN(c2ccc(OC(CO)C(F)(F)F)nc2)C3=O)cnc1OC (centres undefined)
< 100 nM	CCO[C@@]1(C)c2nc(-c3cnc(OC)c(OC)c3)cc(C)c2C(=O)N1c1cnn(CC(F)(F)F)c1
< 100 nM	Cc1cc(-c2cncc(OC(F)F)c2)nc2c1C(=O)N(c1cn[nH]c1)C2
< 100 nM	COc1cc(-c2ccc3c(n2)[C@H](C)N(c2ccn(CC(F)(F)F)n2)C3=O)cnc1OC
< 100 nM	Cc1cc(-c2cc(O)cc(OC(F)(F)F)c2)nc2c1C(=O)N(c1cnn(CC(F)(F)F)c1)C2
< 100 nM	COc1cc(-c2cc(Cl)c3c(n2)CN(c2cnn(CC(F)(F)F)c2)C3=O)cnc1OC
< 100 nM	COc1cc(-c2ccc3c(n2)CN(c2cnn(CC4CC4)c2)C3=O)cnc1OC
< 100 nM	COc1cncc(-c2cc(C)c3c(n2)C2(CN(C(=O)OC(C)(C)C)C2)N(c2cnn(CC(F)(F)F)c2)C3=O)c1
< 100 nM	Cc1cc(-c2cccnc2NC(=O)C(C)(C)C)nc2c1C(=O)N(c1cnn(CC(F)(F)F)c1)C2
100 to 490 nM	Cc1ncc(-c2ccc3c(n2)CN(c2cnn(CC(F)(F)F)c2)C3=O)cc1OCC(F)F
< 100 nM	COc1cc(-c2ccc3c(n2)CN(c2cnn(CCn4cccc4)c2)C3=O)cnc1OC
< 100 nM	Cc1ccc(-c2cc(C)c3c(n2)CN(c2cnn(CC#N)c2)C3=O)cn1
100 to 490 nM	COCc1cccc(-c2cc(C)c3c(n2)CN(c2cnn(C(C)(C)C#N)c2)C3=O)c1
< 100 nM	CCn1cc(N2Cc3nc(-c4cnc(OC)c(OC(C)C)c4)cc(C)c3C2=O)cn1
< 100 nM	COc1cc(-c2ccc3c(c2)CN(c2ccn(C)n2)C3=O)cnc1OC
< 100 nM	COc1cc(-c2cc(C)c3c(n2)CN(c2cncc(OC(F)F)c2)C3=O)cnc1OC
< 100 nM	COc1ncc(-c2cc(C)c3c(n2)CN(c2cnn(C(C)(C)C#N)c2)C3=O)cn1
< 100 nM	COc1ccc(-c2cc(C)c3c(c2)CN(c2cnn(CC#N)c2)C3=O)cc1OC
